Test results as given in patent US10912741B2, “Prevention of liver cancer with safranal-based formulations” (United Arab Emirates University, priority 2019, dated 2021).
Marks after values point to notes of the source that are not given here.

Tests used:
Format in all cases: in vivo, albino Wistar rats
Conditions in all cases: mean±SEM, 8 rats
[1] = test system: superoxide dismutase (SOD); test: Superoxide dismutase in liver homogenate, DEN/2-AAF hepatocarcinogenesis model
Method: (§1) The experimental hepatocarcinogenesis model was developed according to a protocol by […] et al. that was adapted for our purposes. To initiate and promote hepatocarcinogenesis, diethylnitrosamine (DEN) and 2-acetylaminofluorene (2-AAF) were used, respectively. For hepatocarcinogenesis initiation in this model, a single DEN dose (200 mg/kg b.wt.) dissolved in saline was injected intraperitoneally. After initiation, all rats underwent one period of 5-days fasting, as mitotic proliferative stimuli. To promote hepatocarcinogenesis, 2-acetylaminofluorene (2-AAF) was introduced in the form of six daily intragastric doses (30 mg/kg in 1% Tween 80); two weeks after DEN treatment. […] at doses of 25 mg/kg by weight (b.wt.) and 50 mg/kg b.wt, was administrated orally to rats. These doses have been reported to suppress chemically-induced oxidative damage in rats. A total of 40 adult male albino Wistar rats were randomly divided into […] (n=8) and were subjected to different treatments. Group 1 (control) was orally administered distilled water (5 ml/kg b.wt.) throughout the experimental duration and were injected with a single dose of saline. Group 2 ([…] only) was subjected to a safranal dose (50 mg/kg b.wt.) through oral administration for the duration of the experimental period. Hepatocarcinogenesis was induced by DEN and promoted by 2-AAF, as reported previously, in group 3 (HCC). […] Glutathione (GSH) content was determined by analyzing liver homogenates, according to the method of Van Dooran et al. The assay depends on measuring yellow 5-thiol-2-nitrobenzoate absorbance at 412 nm. Glutathione-S-transferase (GST) activity was determined using the method of Habig et al. GST catalyzes the conjugation of GSH thiol group with 1-Chloro-2,4-dinitrobenzene (CDNB), which can be measured by determining the increase in absorbance at 340 nm. […] CAT decomposes hydrogen peroxide (H2O2) to oxygen and water; therefore, the activity of CAT was evaluated according to by the exponential decomposition of H2O2 at 240 nm. […] UV-160-Shimadzu recording spectrophotometer was used to record absorbances. […]

[2] = test system: myeloperoxidase (MPO); test: Myeloperoxidase activity in liver homogenate, DEN/2-AAF hepatocarcinogenesis model
Method: as §1

[3] = test system: COX-2; test: Immunohistochemical staining of liver sections, COX-2 positive cells
Method: The experimental hepatocarcinogenesis model was developed according to a protocol by Espandiaria et al. that was adapted for our purposes. To initiate and promote hepatocarcinogenesis, diethylnitrosamine (DEN) and 2-acetylaminofluorene (2-AAF) were used, respectively. For hepatocarcinogenesis initiation in this model, a single DEN dose (200 mg/kg b.wt.) dissolved in saline was injected intraperitoneally. After initiation, all rats underwent one period of 5-days fasting, as mitotic proliferative stimuli. To promote hepatocarcinogenesis, 2-acetylaminofluorene (2-AAF) was introduced in the form of six daily intragastric doses (30 mg/kg in 1% Tween 80); two weeks after DEN treatment.
Safranal at doses of 25 mg/kg by weight (b.wt.) and 50 mg/kg b.wt, was administrated orally to rats. These doses have been reported to suppress chemically-induced oxidative damage in rats. A total of 40 adult male albino Wistar rats were randomly divided into […] (n=8) and were subjected to different treatments. Group 1 (control) was orally administered distilled water (5 ml/kg b.wt.) throughout the experimental duration and were injected with a single dose of saline. Group 2 (Safranal only) was subjected to a safranal dose (50 mg/kg b.wt.) through oral administration for the duration of the experimental period. Hepatocarcinogenesis was induced by DEN and promoted by 2-AAF, as reported previously, in group 3 (HCC). Rats in protective groups (groups 4-5) were treated with low/high doses of saffron-based safranal suspensions, at the beginning of promotion periods and continued for 12 weeks. The low dosage treatment with safranal consisted of 25 mg/kg b.wt., and the high dosage treatment consisted of 50 mg/kg b.wt. The experimental design is illustrated in FIG. 1.
For immunohistochemical staining, mounted sections were immersed in sodium citrate buffer (0.1 M, pH 6) and placed in a water bath for 15 minutes to unmask antigen epitopes. […] Ten fields were randomly selected to quantify positive cells, in individual samples (400×). […]

[4] = HCC (DEN/2-AAF) rats + safranal high dose 50 mg/kg b.wt. oral, 12 weeks
[5] = HCC (DEN/2-AAF) rats + safranal low dose 25 mg/kg b.wt. oral, 12 weeks
[6] = safranal alone 50 mg/kg b.wt. oral, no DEN (group 2)

CC1=C(C=O)C(C)(C)CC=C1 [Safranal, 2,6,6-trimethylcyclohexa-1,3-diene-1-carbaldehyde]
SOD [1, 4]: 3.96 ± 0.13 unit/mg protein
SOD [1, 5]: 4.02 ± 0.18 unit/mg protein
SOD [1, 6]: 4.05 ± 0.09 unit/mg protein
MPO [2, 4]: 31.54 ± 2.4 milliunit/mg protein
MPO [2, 5]: 27.47 ± 1.77 milliunit/mg protein
MPO [2, 6]: 32.61 ± 1.61 milliunit/mg protein
COX-2 positive cells [3, 4]: 6.91 ± 1.09^a&b positive cells/field
COX-2 positive cells [3, 5]: 2.15 ± 0.38^b positive cells/field
COX-2 positive cells [3, 6]: 0.58 ± 0.04 positive cells/field
